Measurements published in paper PMC11157491, “Novel Alaninamide Derivatives with Drug-like Potential for Development as Antiseizure and Antinociceptive Therapies—In Vitro and In Vivo Characterization” (ACS Chemical Neuroscience, 2024).

What was measured:
GABAA ion channel = GABAA ion channel [3H]GABA binding (agonist radioligand); details: 100 μM, rat hippocampus
Description: (§1) Binding/functional studies were carried out commercially in Eurofins Laboratories (Poitiers, France) and Eurofins Panlabs Discovery Services Taiwan, Ltd. (New Taipei City, Taiwan) using testing procedures that were reported previously (for details, see Table S2).
(§2) Table S2. Radioligand binding and functional assays. […]
GABAA ion channel [3H]GABA (agonist radioligand)
(§3) Potassium channel (hERG) […]
(§4) Assays were performed commercially in Eurofins Laboratories ( Poitiers, France) or Eurofins Panlabs Discovery Services
(§5) Taiwan, Ltd. (New Taipei City, Taiwan).

hERG potassium channel = target: T1, hERG potassium channel (Homo sapiens, UniProt Q12809); test: hERG potassium channel binding; details: HEK-293 cells expressing human recombinant hERG, human recombinant HEK-293 cell, read-out: % inhibition of control specific binding
T1 construct: Eurofins (contract assay)
Excerpt: Moreover, we also evaluated its influence on the potassium channel (hERG), which is known to be one of the most critical “off-targets” responsible for the harmful proarrhythmic activity of drugs and drug candidates.[56] […] The latter result is particularly important, since it minimizes the risk of potential proarrhythmic activity of 28. Despite this positive result, more detailed off-target profiling is undoubtedly necessary in the next steps of preclinical development.
as §1, §2, §3, §4, §5

mice = test: Streptozotocin (STZ)-induced peripheral neuropathy, von Frey test; format: in vivo; details: 21 days after STZ
Description: In the first group, the initial value of 6.08 ± 0.29 (baseline) decreased to the value of 4.30 ± 0.21 (70.7% of the baseline). […] In the second group, the initial value of 6.08 ± 0.29 (baseline) decreased to the value of 5.02 ± 0.27 (82.6% of the baseline). The administration of 28 at a dose of 25 mg/kg elevated the pain threshold to the value of 7.69 ± 0.41, which corresponds with 126.5% of the baseline. In the third group, the baseline was decreased to the value of 5.35 ± 0.27 (88.0% of the baseline). The effect was not statistically significant. The administration of 28 at a dose of 50 mg/kg elevated the pain threshold to a value as high as 8.70 ± 0.41, which corresponds with 143.1% of the baseline.
The experimental groups consisted of 10 adult male Albino Swiss mice (CD-1, 18–25 g). Each animal was tested only once. Immediately after the assay, the animals were sacrificed by cervical dislocation. Behavioral measurements were observed by trained observers. The in vivo antinociceptive assays were in accordance with Polish regulations and the European Union Directive of 22 Sept 2010 (2010/63/EU). All procedures were carried out according to the rules of the International Council on Laboratory Animal Science (ICLAS) and were approved by the Local Ethics Committee in Cracow, Poland (104/2015, 279/2019, and 614/2022). The tested substances were suspended in a 1% aqueous solution of Tween 80 and were injected i.p. 30 min prior to the test. Control group animals (negative control) were administered with an appropriate amount of vehicle (Tween 80, 1% aqueous solution, i.p.) 30 min prior to the test. […] Before formalin application, different groups of animals were injected i.p. with vehicle (10 mL/kg, negative control). The in vivo procedure for the model of capsaicin-induced nociception was previously reported;[67] the animals were pretreated with vehicle (10 mL/kg, negative control), and the dose–response of investigated compounds was evaluated at 12.5, 25, and 50 mg/kg.
Data are presented as means ± standard error of the mean (SEM). GraphPad Prism Software (v.5) was used to analyze the vast majority of data. Statistically significant differences between groups were calculated using one-way analysis of variance (ANOVA) and the post hoc Dunnett’s multiple comparison test or two-way analysis of variance (ANOVA). The criterion for significance was set at p < 0.05. The log-probit method was applied to statistically determine the ED50 values with 95% confidence limits.

T1 sequence (Q12809 whole entry): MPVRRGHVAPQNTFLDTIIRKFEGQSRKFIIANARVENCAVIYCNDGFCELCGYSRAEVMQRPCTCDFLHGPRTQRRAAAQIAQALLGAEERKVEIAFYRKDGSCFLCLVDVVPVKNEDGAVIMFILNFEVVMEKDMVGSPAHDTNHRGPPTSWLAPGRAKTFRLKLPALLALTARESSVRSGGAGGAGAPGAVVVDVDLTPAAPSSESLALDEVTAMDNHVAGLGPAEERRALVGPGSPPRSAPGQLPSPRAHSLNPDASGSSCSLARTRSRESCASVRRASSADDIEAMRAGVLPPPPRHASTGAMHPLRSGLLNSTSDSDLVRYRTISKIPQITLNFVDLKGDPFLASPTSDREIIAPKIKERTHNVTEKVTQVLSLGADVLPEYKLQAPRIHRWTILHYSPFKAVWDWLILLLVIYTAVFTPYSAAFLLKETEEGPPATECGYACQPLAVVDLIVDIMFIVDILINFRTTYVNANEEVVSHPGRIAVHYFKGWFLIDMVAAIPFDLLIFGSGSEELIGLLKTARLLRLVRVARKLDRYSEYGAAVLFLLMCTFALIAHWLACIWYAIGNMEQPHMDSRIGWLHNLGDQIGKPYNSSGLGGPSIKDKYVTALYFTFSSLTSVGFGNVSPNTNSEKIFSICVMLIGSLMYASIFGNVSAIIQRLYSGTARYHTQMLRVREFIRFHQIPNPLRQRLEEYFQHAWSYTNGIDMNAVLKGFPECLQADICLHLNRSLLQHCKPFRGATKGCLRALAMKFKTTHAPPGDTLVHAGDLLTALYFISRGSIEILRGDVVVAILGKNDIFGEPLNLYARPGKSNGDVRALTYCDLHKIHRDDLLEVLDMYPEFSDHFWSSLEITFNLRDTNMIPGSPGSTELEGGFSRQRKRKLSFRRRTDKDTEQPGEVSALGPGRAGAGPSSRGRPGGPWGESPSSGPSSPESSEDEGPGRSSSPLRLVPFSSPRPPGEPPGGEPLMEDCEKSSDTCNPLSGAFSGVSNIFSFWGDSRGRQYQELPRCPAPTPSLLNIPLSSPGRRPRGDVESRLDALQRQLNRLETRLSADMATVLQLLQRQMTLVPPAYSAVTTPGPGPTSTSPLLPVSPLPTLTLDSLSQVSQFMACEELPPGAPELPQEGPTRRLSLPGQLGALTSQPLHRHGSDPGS

Q: Which “% inhibition of control specific binding” value (GABAA ion channel) does the source give for `CC(=O)NC(C)C(=O)N1CCN(c2cccc(OC(F)(F)F)c2)CC1` (stereo not shown) [Compound 28, N-(1-oxo-1-(4-(3-(Trifluoromethoxy)phenyl)piperazin-1-yl)propan-2-yl)acetamide] here?
A: 10.0%

Q: And the inhibition at 100 µM (hERG potassium channel)?
A: 12.9%

Q: And the “pain threshold after compound, % of the baseline” value (shortened to “pain threshold after compound, %”) (mice; 12.5 mg/kg)?
A: 100.0%

Q: And the “pain threshold (von Frey) after compound” value (mice; 25 mg/kg)?
A: 7.69 ± 0.41

Q: And the “pain threshold after compound, %” value (mice; 25 mg/kg)?
A: 126.5%

Q: And the “pain threshold (von Frey) after compound” value (mice; 50 mg/kg)?
A: 8.70 ± 0.41

Q: What about the “pain threshold after compound, %” value (mice; 50 mg/kg) of the same compound?
A: 143.1%
